Each block holds one compound with its values, some of them ahead of it. Residues, ends and D or L forms follow the SMILES beside them.
Assays:
[1] = molecular target: Programmed cell death 1 ligand 1 (Homo sapiens) (UniProt Q9NZQ7); experiment: Inhibition of human recombinant extracellular domain PD-L1 in human DU-145 cells incubated for 1 hr relative to control; type: cell-based; settings: concentration not given here
[2] = Oral bioavailability in mouse; type: ADME, organism-based; settings: in vivo
[3] = system: NCI-H292; experiment: Cytotoxicity against human NCI-H292 cells assessed as inhibition of cell growth; type: functional, cell-based
[4] = molecular target: Programmed cell death 1 ligand 1 (Homo sapiens) (UniProt Q9NZQ7); experiment: Induction of PD-L1 degradation in human NCI-H292 at 20 uM relative to control; type: cell-based
[5] = molecular target: T1, Programmed cell death protein 1/Programmed cell death 1 ligand 1 (Homo sapiens, UniProt Q15116+Q9NZQ7); experiment: Inhibition of Fc-fused recombinant human PD-I/His-tagged recombinant human PD-L1 interaction incubated overnight by HTRF assay; type: protein-complex assay
[6] = molecular target: T1, Programmed cell death protein 1/Programmed cell death 1 ligand 1; experiment: Inhibition of PD-1/PD-L1 interaction (unknown origin) by HTRF assay; type: protein-complex assay
[7] = molecular target: T1, Programmed cell death protein 1/Programmed cell death 1 ligand 1; experiment: Inhibition of PD-1/PD-L1 interaction (unknown origin) at 25 uM by AlphaLISA assay relative to control; type: protein-complex assay
[8] = molecular target: T1, Programmed cell death protein 1/Programmed cell death 1 ligand 1; experiment: Inhibition of PD-I/PD-L1 interaction (unknown origin); type: protein-complex assay
[9] = molecular target: T1, Programmed cell death protein 1/Programmed cell death 1 ligand 1; experiment: Inhibition of biotinylated human PD-I /His-tagged PD-L1 (unknown origin) interaction incubated for 90 mins in dark condition by AlphaLISA assay; type: protein-complex assay
[10] = system: B16-F10; experiment: Antitumor activity against mouse B16-F10 expressing human PD-L1 allografted in C57BL/6 mouse assessed as inhibition of tumor growth at 10 mg/kg, ip administered every 3 days for 24 days relative to control; type: functional; settings: B16-F10, 72 h, time 3 day
[11] = system: B16-F10; experiment: Antitumor activity against mouse B16-F10 expressing human PD-L1 allografted in C57BL/6 mouse assessed as inhibition of tumor growth at 10 mg/kg, ip administered every 2 days for 24 days relative to control; type: functional; settings: B16-F10, 48 h, time 2 day
[12] = molecular target: T1, Programmed cell death protein 1/Programmed cell death 1 ligand 1; experiment: Inhibition of PD-I/PD-L1 interaction (unknown origin) by HTRF assay; type: protein-complex assay
[13] = Cytotoxicity against human MDA-MB-231 cells assessed as reduction in cell growth by MTT assay; type: toxicity, cell-based
[14] = molecular target: T1, Programmed cell death protein 1/Programmed cell death 1 ligand 1; experiment: Inhibition of PD-I/PD-L1 interaction (unknown origin) by ELISA; type: protein-complex assay
[15] = molecular target: T2, PD1-PDL2 (Homo sapiens, UniProt Q15116+Q9BQ51); experiment: Inhibition of PD-I/PD-L2 interaction (unknown origin) expressed in human […] cells; type: cell-based
[16] = molecular target: T2, PD1-PDL2; experiment: Inhibition of PD-I/PD-L2 interaction (unknown origin) expressed in HEK293 cells; type: cell-based
[17] = molecular target: T1, Programmed cell death protein 1/Programmed cell death 1 ligand 1; experiment: Inhibition of biotinylated human PD-I/human PD-L1 interaction at 100 uM incubated for 2 hrs by ELISA relative to control; type: protein-complex assay

T1 sequence (Q15116 whole entry, the tested form may be a part): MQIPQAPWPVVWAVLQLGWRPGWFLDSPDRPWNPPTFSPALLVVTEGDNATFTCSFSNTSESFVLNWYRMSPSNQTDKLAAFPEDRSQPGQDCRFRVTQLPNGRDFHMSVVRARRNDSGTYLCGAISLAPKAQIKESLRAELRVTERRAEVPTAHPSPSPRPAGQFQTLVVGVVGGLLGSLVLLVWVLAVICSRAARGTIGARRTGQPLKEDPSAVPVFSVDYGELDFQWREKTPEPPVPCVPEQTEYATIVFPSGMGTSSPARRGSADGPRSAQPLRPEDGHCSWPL
T1 sequence (Q9NZQ7 whole entry, the tested form may be a part): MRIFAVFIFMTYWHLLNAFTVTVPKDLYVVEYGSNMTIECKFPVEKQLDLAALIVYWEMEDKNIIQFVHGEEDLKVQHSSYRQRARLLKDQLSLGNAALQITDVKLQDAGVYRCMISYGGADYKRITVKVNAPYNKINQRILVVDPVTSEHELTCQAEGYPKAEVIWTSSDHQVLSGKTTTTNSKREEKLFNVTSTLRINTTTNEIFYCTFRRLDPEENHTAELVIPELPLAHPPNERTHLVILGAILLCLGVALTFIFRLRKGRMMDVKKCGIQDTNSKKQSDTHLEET
T2 sequence (Q15116 whole entry): as the sequence (Q15116 whole entry, the tested form may be a part) above
T2 sequence (Q9BQ51 whole entry): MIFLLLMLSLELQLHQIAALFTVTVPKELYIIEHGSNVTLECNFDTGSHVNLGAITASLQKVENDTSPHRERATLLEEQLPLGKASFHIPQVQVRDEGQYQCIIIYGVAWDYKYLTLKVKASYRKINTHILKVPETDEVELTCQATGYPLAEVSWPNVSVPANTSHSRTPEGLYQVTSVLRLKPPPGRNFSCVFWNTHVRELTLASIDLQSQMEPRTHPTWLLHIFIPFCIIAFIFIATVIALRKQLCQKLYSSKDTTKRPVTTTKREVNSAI
Chain of Programmed cell death 1 ligand 1 (Homo sapiens) (Q9NZQ7 whole entry, the tested form may be a part): as the sequence (Q9NZQ7 whole entry, the tested form may be a part) above

Compound: CC(C)C[C@H](NC(=O)[C@H](CC(N)=O)NC(=O)[C@H](Cc1c[nH]c2ccccc12)NC(=O)[C@@H](NC(=O)[C@H](Cc1ccc(O)cc1)NC(=O)[C@H](Cc1ccc(O)cc1)NC(=O)[C@H](CO)NC(=O)[C@H](CCCNC(=N)N)NC(=O)[C@H](Cc1c[nH]cn1)NC(=O)[C@@H](N)Cc1c[nH]c2ccccc12)[C@@H](C)O)C(=O)N[C@@H](CC(N)=O)C(=O)N[C@H](C(=O)O)[C@@H](C)O (H-WHRSYYTWNLNT-OH)
inhibition [1]: 80%

bioavailability [2]: 25%
Compound: CC1=C(C(=O)OCc2ccccc2)C(CC(C)(C)C)C(C(=O)OCc2ccccc2)=C(C)N1
IC50 [3]: 62 µM
Activity [4]: 67%

Compound: Cc1cc(/C=C/c2ccc3cc(N(C)C)ccc3[n+]2C)c(C)n1-c1ccccc1
IC50 [6]: 30 µM
inhibition [7]: 44.5%

Compound: Cc1c(COc2ccc(CN[C@H](CO)C(=O)O)c(OCc3cccc(C#N)c3)c2)cccc1-c1ccc2c(c1)OCCO2
IC50 [8]: 0.00225 µM

Compound: CO[C@H]1/C=C/O[C@@]2(C)Oc3c(C)c(O)c4c(c3C2=O)C2=NC3(CCN(CC(C)C)CC3)NC2=C(NC(=O)/C(C)=C\C=C\[C@H](C)[C@H](O)[C@@H](C)[C@@H](O)[C@@H](C)[C@H](OC(C)=O)[C@@H]1C)C4=O [RIFABUTIN]
IC50 [9]: 25 µM

Compound: NC(=O)c1ccccc1NC(=O)c1ccc(-c2ccccc2)cc1
inhibition in vivo at 10 mg/kg [10]: 66%
inhibition in vivo at 10 mg/kg [11]: 62%

Compound: COc1nc(-c2cccc(-c3ccccc3F)c2C)ccc1CNCCC(N)=O
IC50 [12]: 0.0009 µM
EC50 [13]: 11.1 µM

Compound: CSCC[C@H](NC(=O)[C@H](CC(=O)O)NC(=O)[C@H](Cc1ccccc1)NC(=O)[C@H](CCCNC(=N)N)NC(=O)[C@H](Cc1ccc(O)cc1)NC(=O)[C@H](CC(=O)O)NC(=O)[C@H](CCCNC(=N)N)NC(=O)[C@H](Cc1c[nH]c2ccccc12)NC(=O)[C@@H](NC(=O)[C@H](Cc1c[nH]c2ccccc12)NC(=O)[C@@H](N)CCCNC(=N)N)C(C)C)C(=O)NCC(=O)N[C@@H](Cc1ccccc1)C(=O)N[C@@H](CC(=O)O)C(=O)N[C@@H](Cc1c[nH]c2ccccc12)C(=O)N[C@H](C(=O)N[C@@H](Cc1c[nH]c2ccccc12)C(=O)N[C@@H](CCC(=O)O)C(=O)O)C(C)C (H-RWVWRDYRFDMGFDWVWE-OH)
IC50 [14]: 0.6 µM

EC50 [15]: 0.00041 µM
EC50 [16]: 0.00072 µM
Compound: CC[C@H](C)[C@H](NC(=O)[C@H](CCC(N)=O)NC(=O)[C@H](C)NC(=O)[C@H](CCCCN)NC(=O)[C@@H]1CCCN1C(=O)[C@H](C)NC(=O)[C@H](CC(C)C)NC(=O)[C@H](CCC(N)=O)NC(=O)[C@@H](NC(=O)[C@@H](NC(=O)[C@H](CCCNC(=N)N)NC(=O)[C@H](Cc1ccccc1)NC(=O)[C@H](CCCCNC(=O)[C@H](Cc1ccccc1)NC(=O)[C@H](CO)NC(=O)[C@H](CCC(=O)O)NC(=O)[C@H](CO)NC(=O)[C@@H](NC(=O)[C@H](CC(N)=O)NC(=O)[C@@H](N)CO)[C@@H](C)O)NC(=O)[C@H](Cc1ccccc1)NC(=O)[C@H](CO)NC(=O)[C@H](CCC(=O)O)NC(=O)[C@H](CO)NC(=O)[C@@H](NC(=O)[C@H](CC(N)=O)NC(=O)[C@@H](N)CO)[C@@H](C)O)C(C)C)[C@@H](C)O)C(=O)N[C@@H](CCCCN)C(=O)N[C@@H](CCC(=O)O)C(N)=O

Compound: O=C(c1cc2ccccc2[nH]1)N1CCN(Cc2csc(-c3ccccc3)n2)CC1
inhibition [17]: 21%
